Experiment in all cases: biochemical
Assay [1] has as its target T1, safety screen panel of human pharmacological targets (Homo sapiens, UniProt P04150).
T1 sequence (P04150 1-777): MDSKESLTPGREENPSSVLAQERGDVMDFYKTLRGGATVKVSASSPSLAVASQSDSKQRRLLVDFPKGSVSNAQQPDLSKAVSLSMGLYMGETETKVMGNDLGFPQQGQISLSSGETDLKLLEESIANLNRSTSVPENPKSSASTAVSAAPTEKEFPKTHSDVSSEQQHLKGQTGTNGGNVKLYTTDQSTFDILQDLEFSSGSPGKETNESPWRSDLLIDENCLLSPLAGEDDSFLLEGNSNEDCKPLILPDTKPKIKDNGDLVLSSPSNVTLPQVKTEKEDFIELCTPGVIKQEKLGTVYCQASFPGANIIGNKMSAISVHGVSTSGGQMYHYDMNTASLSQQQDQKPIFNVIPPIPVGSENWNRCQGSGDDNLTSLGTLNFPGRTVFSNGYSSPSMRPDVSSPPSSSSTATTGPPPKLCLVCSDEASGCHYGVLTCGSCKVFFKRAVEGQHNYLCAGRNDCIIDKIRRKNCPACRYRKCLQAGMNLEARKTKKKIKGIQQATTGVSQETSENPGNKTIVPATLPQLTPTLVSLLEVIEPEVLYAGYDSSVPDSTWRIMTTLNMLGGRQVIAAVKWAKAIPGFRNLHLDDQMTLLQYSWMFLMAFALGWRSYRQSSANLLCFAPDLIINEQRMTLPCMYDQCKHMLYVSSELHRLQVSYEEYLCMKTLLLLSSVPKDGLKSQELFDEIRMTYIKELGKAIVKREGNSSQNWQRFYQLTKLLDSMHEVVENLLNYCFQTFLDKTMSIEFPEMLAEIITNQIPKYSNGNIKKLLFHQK
The settings on record: read-out: percent inhibition: GR (h) (agonist radioligand).

The target in assay [2] is safety screen panel of human pharmacological targets (Homo sapiens, UniProt P23975). To be noted: read-out: percent inhibition: norepinephrine transporter (h) (antagonist radioligand).
Chain of safety screen panel of human pharmacological targets (Homo sapiens, UniProt P23975) (P23975 whole entry): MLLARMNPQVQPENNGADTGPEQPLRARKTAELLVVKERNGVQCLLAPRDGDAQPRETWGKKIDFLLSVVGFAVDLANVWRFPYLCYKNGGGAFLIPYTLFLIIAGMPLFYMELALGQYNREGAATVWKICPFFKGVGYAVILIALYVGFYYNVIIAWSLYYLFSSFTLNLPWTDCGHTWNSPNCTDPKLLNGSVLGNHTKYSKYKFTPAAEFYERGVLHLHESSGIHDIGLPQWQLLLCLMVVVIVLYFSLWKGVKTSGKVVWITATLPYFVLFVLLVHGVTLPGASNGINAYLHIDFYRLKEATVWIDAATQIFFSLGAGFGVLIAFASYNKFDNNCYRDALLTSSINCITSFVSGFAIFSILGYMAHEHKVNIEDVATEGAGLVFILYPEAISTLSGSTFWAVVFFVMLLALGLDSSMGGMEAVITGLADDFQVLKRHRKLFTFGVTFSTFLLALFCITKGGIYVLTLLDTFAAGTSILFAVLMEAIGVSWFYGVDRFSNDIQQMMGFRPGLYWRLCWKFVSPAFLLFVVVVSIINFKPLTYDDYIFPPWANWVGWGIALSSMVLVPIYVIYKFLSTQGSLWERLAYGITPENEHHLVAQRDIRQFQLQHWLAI
The target of assay [3] is safety screen panel of human pharmacological targets (Homo sapiens, UniProt P06239). To be noted: read-out: percent inhibition: Lck kinase (h).
Chain of safety screen panel of human pharmacological targets (Homo sapiens, UniProt P06239) (P06239 whole entry): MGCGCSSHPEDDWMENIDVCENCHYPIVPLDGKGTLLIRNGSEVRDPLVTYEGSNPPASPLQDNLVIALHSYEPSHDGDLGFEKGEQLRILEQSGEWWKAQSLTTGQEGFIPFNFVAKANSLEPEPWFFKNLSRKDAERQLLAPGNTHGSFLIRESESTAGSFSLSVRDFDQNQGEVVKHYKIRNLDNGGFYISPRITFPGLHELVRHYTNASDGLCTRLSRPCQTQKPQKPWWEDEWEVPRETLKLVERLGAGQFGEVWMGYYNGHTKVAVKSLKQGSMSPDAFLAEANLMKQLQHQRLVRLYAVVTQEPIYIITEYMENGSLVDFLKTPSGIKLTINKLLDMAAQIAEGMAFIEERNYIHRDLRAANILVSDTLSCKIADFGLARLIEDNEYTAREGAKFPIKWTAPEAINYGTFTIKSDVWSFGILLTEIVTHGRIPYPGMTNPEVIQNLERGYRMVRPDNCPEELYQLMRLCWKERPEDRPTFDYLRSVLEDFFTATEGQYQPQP
In assay [4] the target is safety screen panel of human pharmacological targets (Homo sapiens, UniProt P35372). The settings on record: read-out: percent inhibition: mu (MOP) (h) (agonist radioligand).
Chain of safety screen panel of human pharmacological targets (Homo sapiens, UniProt P35372) (P35372 whole entry): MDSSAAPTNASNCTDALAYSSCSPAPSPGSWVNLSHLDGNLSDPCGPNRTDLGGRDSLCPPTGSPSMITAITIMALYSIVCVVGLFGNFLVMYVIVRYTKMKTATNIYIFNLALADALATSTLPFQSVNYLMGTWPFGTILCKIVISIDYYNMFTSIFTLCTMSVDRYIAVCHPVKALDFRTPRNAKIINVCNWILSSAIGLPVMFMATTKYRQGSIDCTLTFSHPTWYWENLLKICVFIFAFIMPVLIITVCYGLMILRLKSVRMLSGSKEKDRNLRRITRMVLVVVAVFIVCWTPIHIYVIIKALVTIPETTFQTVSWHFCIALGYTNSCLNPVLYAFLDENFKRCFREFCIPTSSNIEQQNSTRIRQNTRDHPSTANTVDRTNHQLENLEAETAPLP
The target in assay [5] is safety screen panel of human pharmacological targets (Homo sapiens, UniProt P23219). The settings on record: read-out: percent inhibition: COX1(h).
Chain of safety screen panel of human pharmacological targets (Homo sapiens, UniProt P23219) (P23219 24-599): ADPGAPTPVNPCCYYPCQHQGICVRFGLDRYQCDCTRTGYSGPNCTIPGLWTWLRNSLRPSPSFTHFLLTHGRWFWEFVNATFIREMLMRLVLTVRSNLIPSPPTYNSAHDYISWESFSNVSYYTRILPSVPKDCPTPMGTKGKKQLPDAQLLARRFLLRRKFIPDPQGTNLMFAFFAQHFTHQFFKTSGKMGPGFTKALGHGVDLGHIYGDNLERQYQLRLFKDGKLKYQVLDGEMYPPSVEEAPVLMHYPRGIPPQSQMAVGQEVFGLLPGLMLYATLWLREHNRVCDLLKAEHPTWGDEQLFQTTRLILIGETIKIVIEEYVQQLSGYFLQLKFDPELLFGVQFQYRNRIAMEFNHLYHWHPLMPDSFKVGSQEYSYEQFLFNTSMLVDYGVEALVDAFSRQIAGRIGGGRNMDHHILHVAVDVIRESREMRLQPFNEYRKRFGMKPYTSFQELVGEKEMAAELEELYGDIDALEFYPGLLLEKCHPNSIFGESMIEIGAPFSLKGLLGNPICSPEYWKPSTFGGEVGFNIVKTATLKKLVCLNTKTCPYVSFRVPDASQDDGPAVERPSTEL
The target of assay [6] is T2, safety screen panel of human pharmacological targets (Homo sapiens, UniProt P10275).
T2 sequence (P10275 1-920): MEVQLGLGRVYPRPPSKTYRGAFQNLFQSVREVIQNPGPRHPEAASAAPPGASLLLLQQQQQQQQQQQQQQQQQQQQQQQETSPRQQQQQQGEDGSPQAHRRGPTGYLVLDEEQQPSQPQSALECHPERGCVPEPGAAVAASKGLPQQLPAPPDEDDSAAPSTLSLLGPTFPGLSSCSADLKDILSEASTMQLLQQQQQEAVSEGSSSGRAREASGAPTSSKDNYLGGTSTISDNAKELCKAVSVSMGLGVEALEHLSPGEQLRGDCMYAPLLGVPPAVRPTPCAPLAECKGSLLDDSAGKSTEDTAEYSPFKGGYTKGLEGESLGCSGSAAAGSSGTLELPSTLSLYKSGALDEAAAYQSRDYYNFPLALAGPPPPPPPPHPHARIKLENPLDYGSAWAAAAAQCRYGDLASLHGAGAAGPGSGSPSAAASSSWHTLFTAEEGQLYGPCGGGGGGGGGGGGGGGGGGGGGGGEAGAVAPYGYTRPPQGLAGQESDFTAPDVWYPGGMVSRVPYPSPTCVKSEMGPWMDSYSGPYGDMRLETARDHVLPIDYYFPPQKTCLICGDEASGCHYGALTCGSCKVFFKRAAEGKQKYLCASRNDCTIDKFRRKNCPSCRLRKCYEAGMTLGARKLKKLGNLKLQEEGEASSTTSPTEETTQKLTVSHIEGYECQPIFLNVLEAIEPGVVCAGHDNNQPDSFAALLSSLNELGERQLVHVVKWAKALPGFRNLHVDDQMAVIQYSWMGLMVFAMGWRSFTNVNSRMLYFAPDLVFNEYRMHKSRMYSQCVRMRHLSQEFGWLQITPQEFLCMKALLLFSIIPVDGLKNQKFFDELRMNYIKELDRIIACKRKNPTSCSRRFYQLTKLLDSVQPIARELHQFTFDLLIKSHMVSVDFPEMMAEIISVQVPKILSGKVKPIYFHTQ
To be noted: read-out: percent inhibition: AR (h) (agonist radioligand).

Assay [7] has as its target safety screen panel of human pharmacological targets (Rattus norvegicus, UniProt P34975). The settings on record: read-out: percent inhibition: kappa (KOP) (agonist radioligand).
For assay [8], the target named is safety screen panel of human pharmacological targets (Homo sapiens, UniProt P29274). The settings on record: read-out: percent inhibition: A2A (h) (agonist radioligand).
Chain of safety screen panel of human pharmacological targets (Homo sapiens, UniProt P29274) (P29274 whole entry): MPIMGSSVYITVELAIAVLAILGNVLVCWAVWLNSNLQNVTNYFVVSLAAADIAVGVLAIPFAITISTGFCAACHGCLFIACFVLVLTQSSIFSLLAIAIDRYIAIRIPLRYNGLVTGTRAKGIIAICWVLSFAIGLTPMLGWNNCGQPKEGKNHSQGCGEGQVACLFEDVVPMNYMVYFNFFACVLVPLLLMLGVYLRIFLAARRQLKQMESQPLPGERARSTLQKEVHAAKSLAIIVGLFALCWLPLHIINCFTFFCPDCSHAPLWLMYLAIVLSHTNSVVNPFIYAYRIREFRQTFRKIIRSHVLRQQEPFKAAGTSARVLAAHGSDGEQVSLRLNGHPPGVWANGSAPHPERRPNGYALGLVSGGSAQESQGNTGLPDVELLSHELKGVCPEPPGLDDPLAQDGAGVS
The target in assay [9] is T3, safety screen panel of human pharmacological targets (Homo sapiens, UniProt P08908).
T3 sequence (P08908 1-422): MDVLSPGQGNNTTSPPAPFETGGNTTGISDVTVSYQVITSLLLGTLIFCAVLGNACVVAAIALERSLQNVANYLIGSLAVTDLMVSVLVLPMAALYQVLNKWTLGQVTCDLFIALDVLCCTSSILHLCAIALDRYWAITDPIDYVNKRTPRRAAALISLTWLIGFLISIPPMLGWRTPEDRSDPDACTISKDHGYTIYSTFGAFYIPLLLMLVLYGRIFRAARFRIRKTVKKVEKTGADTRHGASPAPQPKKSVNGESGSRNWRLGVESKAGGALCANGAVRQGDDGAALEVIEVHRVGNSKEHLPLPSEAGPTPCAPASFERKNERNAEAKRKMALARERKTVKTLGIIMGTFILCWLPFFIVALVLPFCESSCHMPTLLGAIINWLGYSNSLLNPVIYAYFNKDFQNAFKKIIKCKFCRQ
To be noted: read-out: percent inhibition: 5-HT1A(h) {agonist radiogilgand).

The structures appear in SMILES notation.

Chain of safety screen panel of human pharmacological targets (Rattus norvegicus, UniProt P34975) (P34975 whole entry): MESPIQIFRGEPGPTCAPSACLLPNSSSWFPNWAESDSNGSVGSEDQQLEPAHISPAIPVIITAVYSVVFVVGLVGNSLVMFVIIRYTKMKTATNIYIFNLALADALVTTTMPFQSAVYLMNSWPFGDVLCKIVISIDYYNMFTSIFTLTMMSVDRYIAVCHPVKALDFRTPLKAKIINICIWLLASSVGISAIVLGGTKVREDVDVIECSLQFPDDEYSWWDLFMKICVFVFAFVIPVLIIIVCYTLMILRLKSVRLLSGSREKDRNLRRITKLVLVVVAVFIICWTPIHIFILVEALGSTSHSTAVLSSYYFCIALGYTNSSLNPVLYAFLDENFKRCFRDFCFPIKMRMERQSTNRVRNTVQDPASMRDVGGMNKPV

`CCCCCc1cc(O)c2c(c1)OC(C)(C)[C@@H]1CCC(C)=C[C@@H]21` [VB301, Δ9-Terahydrocannabinol, reference compound]: the inhibition at 10 µM worked out at 20% in [1]; 90% in [2]; 15% in [3]; 89% in assay [4]; 9% in assay [5]; 13% in assay [6]. For the same compound, the figures for the inhibition at 10 µM in assay [7], in [8] and in assay [9] were 92%, 63% and -27%, respectively.
For the compound `CCCCCc1cc(O[C@@H]2O[C@H](CO)[C@@H](O)[C@H](O)[C@H]2O)c2c(c1)OC(C)(C)[C@@H]1CCC(C)=C[C@@H]21` [VB302, Δ9THC-1-O-glucopyranoside], the inhibition at 10 µM was -8% in assay [1]; 16% in assay [2]; -10% in assay [3]; -5% in [4]; 30% in assay [5]; 4% in assay [6]. Besides, the inhibition at 10 µM was 20% in assay [7], -11% in assay [8] and 6% in [9].
On to `CCCCCc1cc(O[C@@H]2O[C@H](CO[C@@H]3O[C@H](CO)[C@@H](O)[C@H](O)[C@H]3O)[C@@H](O[C@@H]3O[C@H](CO)[C@@H](O)[C@H](O)[C@H]3O)[C@H](O)[C@H]2O)c2c(c1)OC(C)(C)[C@@H]1CCC(C)=C[C@@H]21` [VB311], for which the inhibition at 10 µM in assay [1] turned out to be 12%; in [2] it was 20%; in assay [3], 21%; in [4], 5%; in assay [5] it was 11%; in [6], 10%. Further, the inhibition at 10 µM was 4% in [7], -4% in assay [8] and -6% in [9].

Values taken from patent US20230346952A1, “CANNABINOID GLYCOSIDE PRODRUGS AND METHODS OF SYNTHESIS” (priority 2015, published 2023).
